The text below walks through data of patent US20240050449A1, “Use of Acetyltanshinone IIA in Preparation of Medicament for Treating Lung Cancer and Medicament for Treating Lung Cancer” (UNIVERSITY OF MACAU, priority 2022, published 2024).

Bounds are passed on as bounds.

Holding throughout (type): cell-based
In experiment [1] the test system is A549 cells. Put plainly: Colony formation (cloning experiment), A549 cells. As to conditions: 0.125 μM, 10 days. On the procedure: (§1) Cells were seeded at a density of 1×10^3 per well in 6-well plates and cultured for 24 h. The cells were treated with medicament or DMSO for 10 days, after which the cells were washed once with 1×PBS, fixed with 4% paraformaldehyde for 20 min, and stained with 0.1% crystal violet for 15 min. The stained cells in each well were imaged and the number of colonies in each well was quantified using ImageJ software.

For another experiment, the system named is H1650 cells. Put plainly: Colony formation (cloning experiment), H1650 cells. As to conditions: 10 days. Here is the method:
as §1

In experiment [2] the test system is A549 cells. The experiment can be described thus: Transwell cell migration assay. On the procedure:
Cell migration and invasion assays were performed in a transwell chamber (Corning, #3422) with a pore size of 8 μm. Cells were treated with different concentrations of ATA and Erlotinib for 48 h, then harvested and resuspended in a serum-free medium. Cells (1×10^4) were added to the upper side of the transwell chamber and fresh medium containing 10% FBS was added to the lower side. Cells were allowed to migrate from the upper side to the lower side of the chamber at 37° C. for 24 h. Membranes from the cell chamber were fixed with 4% paraformaldehyde for 20 min. The cells remaining on the upper side of the membrane were gently removed with a cotton swab and stained with 1% crystal violet for 20 min to stain the cells migrating to the other side of the transwell chamber. The membrane was then cut and fixed on a glass slide. The migrated cells on each slide were imaged with a Leica M165-FC microscope. For the transwell invasion assay, a Matrigel solution (Corning, #356230) was diluted to one-thirtieth with serum-free medium and applied to the upper side of the precoated chamber for 2 h, after the Matrigel had solidified, the cells were added to the upper side of the transwell chamber. The following procedure is identical to the migration assay. Migrated and invaded cells were quantified using ImageJ software.

Another experiment relates to EGFR. Put plainly: Western blot, EGFR protein levels in drug-resistant NSCLC cells. Here is the method: (§2) Cells were washed once with PBS and frozen in RIPA lysis buffer containing protease and phosphatase inhibitors (Sigma-Aldrich) for 30 min. After sonication and centrifugation, the total protein concentration was determined by protein assay using Bio-Rad concentrated dye reagent (Bio-Rad). Equal amounts of protein ([…]) from each sample were separated by SDS-PAGE and electrotransferred to nitrocellulose membranes (GE Healthcare). Detection was performed on the membrane with a 1:1000 dilution of specific primary antibody followed by incubation with a 1:2000 dilution of the HRP conjugated secondary antibody. Finally, immunoreactivity is detected with a chemiluminescent substrate (Clarity Western ECL substrate; Bio-Rad). […] Aurora A (#ab13824) and PLK1 (#ab189139) antibodies were from Abcam.
On the technique in general: Immunoblotting shows a protein as a band on a membrane.

A further experiment deals with MET. Put plainly: Western blot, MET protein levels in drug-resistant NSCLC cells. As to conditions: 2 μM. Here is the method: as §2
Experiment [3] deals with p70S6K, AURKA, MET, S6RP and EGFR protein levels. Put plainly: Western blot time course of protein reduction in A549 and H1650 cells. As to conditions: 2 μM. On the procedure: (§3) Cells were washed once with PBS and frozen in RIPA lysis buffer containing protease and phosphatase inhibitors (Sigma-Aldrich) for 30 min. After sonication and centrifugation, the total protein concentration was determined by protein assay using Bio-Rad concentrated dye reagent (Bio-Rad). Equal amounts of protein ([…]) from each sample were separated by SDS-PAGE and electrotransferred to nitrocellulose membranes (GE Healthcare). Detection was performed on the membrane with a 1:1000 dilution of specific primary antibody followed by incubation with a 1:2000 dilution of the HRP conjugated secondary antibody. Finally, immunoreactivity is detected with a chemiluminescent substrate (Clarity Western ECL substrate; Bio-Rad). EGFR (#4267S), MET (#8198S), p-Akt (#9271L), akt (#9272S), p-mTOR (#5536S), mTOR (#2983S), p-p70S6K (#9234S), p70S6K (#2708S), p-S6RP (#4857S), S6RP (#2217S), p-4E-BP1 (#9455S) antibodies. 4E-BP1 (#9644S), p53 (#2527S), p21 waf1/Cip1 (#2947S), survivin (#2808S), cyclin B1 (#12231S), cyclin D3 (#2936S) and GAPDH (#2118S) were purchased from Cell Signaling Technology. Aurora A (#ab13824) and PLK1 (#ab189139) antibodies were from Abcam.
In FIGS. 7, A549 and H1650 cells were treated with ATA (2 μM) for 6, 12, 24, 36, and 48 h, and the protein levels of p70S6K, AURKA, MET, S6RP, and EGFR at each time point were determined by Western blot analysis as shown in (A), and the quantified protein levels are shown in (B). […] (D) is protein levels of p70S6K, p-p70S6K, S6RP, p-S6RP, p21, cyclin D3, AURKA, PLK1, cyclin B1, survivin, EGFR, and MET determined by Western blot analysis for A549 and H1650 cells treated with 10 nM p70S6K siRNA and siRNA negative control for 48 h. (E) is cell viability measured by MTT test for A549 and H1650 cells treated with 10 nM p70S6K siRNA and the negative control siRNA for 48 h. ****P<0.0001 was based on a one-way analysis of variance followed by Tukey's multiple comparison test. (F) It is protein levels of p21, cyclin D3, AURKA, PLK1, cyclin B1, survivin, EGFR, and MET determined by Western blot analysis for A549 and H1650 cells treated with LY294002 (2 μM), PF-4708671 (2 μM), rapamycin (2 μM) and ATA (2 μM) for 48 h. (G) is expression levels of EGFR, MET, p-p70S6K, p70S6K, p-S6RP, S6RP, p21, cyclin D3, AURKA, PLK1, cyclin B1 and survivin in fibroblast HDF, A549 and H1650 cells determined by Western blot analysis, respectively. Statistical data are expressed as the mean SD of three independent experiments.

Another experiment addresses T1, p70S6K (Homo sapiens, UniProt P23443).
T1 construct: endogenous in cells; host or cells: A549, H358, H1975, H1650 for the Western blots
The experiment can be described thus: Western blot, p70S6K protein levels in drug-resistant NSCLC cells. The note with it: 48 h. Here is the method: as §3

T1 sequence (P23443 whole entry): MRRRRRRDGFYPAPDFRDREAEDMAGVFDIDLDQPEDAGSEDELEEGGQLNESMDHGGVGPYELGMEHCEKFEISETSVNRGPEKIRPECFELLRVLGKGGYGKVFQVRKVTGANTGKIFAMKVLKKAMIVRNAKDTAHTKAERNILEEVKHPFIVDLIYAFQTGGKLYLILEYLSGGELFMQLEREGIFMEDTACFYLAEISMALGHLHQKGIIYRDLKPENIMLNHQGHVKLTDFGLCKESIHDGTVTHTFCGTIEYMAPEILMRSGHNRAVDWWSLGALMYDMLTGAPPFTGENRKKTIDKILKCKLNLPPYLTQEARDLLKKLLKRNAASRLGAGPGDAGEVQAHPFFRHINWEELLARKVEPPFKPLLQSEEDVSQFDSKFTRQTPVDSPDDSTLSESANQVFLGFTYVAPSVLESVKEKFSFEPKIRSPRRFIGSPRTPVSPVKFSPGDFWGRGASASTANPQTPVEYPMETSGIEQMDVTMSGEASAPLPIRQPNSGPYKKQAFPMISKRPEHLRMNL

For the compound `CC(=O)Oc1c(OC(C)=O)c2c(C)coc2c2ccc3c(c12)CCCC3(C)C` [ATA, acetyltanshinone IIA], the “reduction of colony-forming capacity” value in the experiment with A549 cells [1] was 42%. The “reduction of colony-forming capacity” value in the experiment with H1650 cells (0.125 μM) was found to be 73%. Besides, in the experiment on H1650 cells (1 μM), the “colony formation inhibition compared with Afatinib” value is listed as “significantly higher colony formation inhibition than Afatinib”. Moreover, the “effect on cell migration” value with A549 cells [2] (0.5 μM) was “significant inhibitory effect”. For the same compound, the “reduction of migration ability” value with A549 cells [2] (1 μM) is 80%. Further, the “decrease of EGFR protein levels” value in the experiment on EGFR (A549 cells, 2 μM, 72 or 96 h) is ≤ 90%. The “reduction of EGFR protein levels” value in the experiment on EGFR (H358, H1975 and H1650 cells, 1 or 2 μM, 48 h) was 60-70%. For the same compound, the “decrease of MET protein levels” value with MET (A549 cells, 72 or 96 h) is ≤ 90%. Moreover, the “reduction of MET protein levels” value in the experiment with MET (all four cell lines, 48 h) is reported as 70-90%. For the same compound, in experiment [3], the “time at which AURKA protein decreased” value came out at 12 h, the “time at which EGFR protein decreased” value fell in the range of 48 to 72 h, the “time at which MET protein decreased” value is 24 h and the “time at which S6RP protein decreased” value is 36 h. The “time at which p70S6K protein decreased” value in experiment [3] was 6 h. For the same compound, the “levels of p70S6K protein and its phosphorylated forms” value on p70S6K (A549, H358, H1975, H1650 cells, 1 or 2 μM) is on record as “greatly reduced”. The “levels of p70S6K” value on p70S6K (A549 and H1650 cells, 2 μM) was “significantly decreased”.
